Numbers after ± are expanded uncertainties.

For two molecules, viscosity, speed of sound and mass density results are on record in the NIST ThermoML archive (doi:10.1021/je034076x).

For this series the following is noted: 101.33 kPa, Liquid; for viscosity: Capillary tube (Ostwald / Ubbelohde) method; for speed of sound: Pulse-echo method; for mass density: Vibrating tube method.

The term viscosity denotes the resistance of a fluid to flow. Broadly, the speed of sound is the propagation velocity of pressure waves in the medium. The term mass density denotes mass per unit of volume. On to `OCC(F)(F)F` [2,2,2-trifluoroethanol], for which the viscosity is, setting by setting: (283.15 K) 2.694 ± 0.02 mPa·s; (298.15 K) 1.755 ± 0.013 mPa·s; (313.15 K) 1.208 ± 0.0095 mPa·s. For the same molecule, the speed of sound amounted to 872.7 ± 0.5 m/s (283.15 K), 833.2 ± 0.5 m/s (298.15 K) and 793.3 ± 0.5 m/s (313.15 K). Also, the mass density reads like this: (283.15 K) 1408.1 ± 0.3 kg/m3; (298.15 K) 1382.56 ± 0.28 kg/m3; (313.15 K) 1356.89 ± 0.27 kg/m3.

As to `C1CCOC1` [tetrahydrofuran], under “283.15 K”, the viscosity is listed as 0.5438 ± 0.0055 mPa·s, the speed of sound is reported as 1348.8 ± 1.2 m/s and the mass density was found to be 898.62 ± 0.47 kg/m3. In addition, where the note is “298.15 K”, the viscosity worked out at 0.4645 ± 0.0048 mPa·s, the speed of sound is reported as 1279 ± 1.2 m/s and the mass density turned out to be 882.18 ± 0.46 kg/m3. Where the note is “313.15 K”, the viscosity came out at 0.3992 ± 0.0043 mPa·s, the speed of sound stood at 1204.8 ± 1.2 m/s and the mass density was determined as 865.95 ± 0.45 kg/m3.
